From paper PMC2854261 (Analytical biochemistry, 2010)

Biological target: human DNA (cytosine-5)-methyltransferase I (DNMT1), Δ501DNMT1 (Homo sapiens, UniProt P26358)
Type: biochemical

human DNA (cytosine-5)-methyltransferase I (DNMT1), Δ501DNMT1, sequence (P26358 502-1616, stated change not applied): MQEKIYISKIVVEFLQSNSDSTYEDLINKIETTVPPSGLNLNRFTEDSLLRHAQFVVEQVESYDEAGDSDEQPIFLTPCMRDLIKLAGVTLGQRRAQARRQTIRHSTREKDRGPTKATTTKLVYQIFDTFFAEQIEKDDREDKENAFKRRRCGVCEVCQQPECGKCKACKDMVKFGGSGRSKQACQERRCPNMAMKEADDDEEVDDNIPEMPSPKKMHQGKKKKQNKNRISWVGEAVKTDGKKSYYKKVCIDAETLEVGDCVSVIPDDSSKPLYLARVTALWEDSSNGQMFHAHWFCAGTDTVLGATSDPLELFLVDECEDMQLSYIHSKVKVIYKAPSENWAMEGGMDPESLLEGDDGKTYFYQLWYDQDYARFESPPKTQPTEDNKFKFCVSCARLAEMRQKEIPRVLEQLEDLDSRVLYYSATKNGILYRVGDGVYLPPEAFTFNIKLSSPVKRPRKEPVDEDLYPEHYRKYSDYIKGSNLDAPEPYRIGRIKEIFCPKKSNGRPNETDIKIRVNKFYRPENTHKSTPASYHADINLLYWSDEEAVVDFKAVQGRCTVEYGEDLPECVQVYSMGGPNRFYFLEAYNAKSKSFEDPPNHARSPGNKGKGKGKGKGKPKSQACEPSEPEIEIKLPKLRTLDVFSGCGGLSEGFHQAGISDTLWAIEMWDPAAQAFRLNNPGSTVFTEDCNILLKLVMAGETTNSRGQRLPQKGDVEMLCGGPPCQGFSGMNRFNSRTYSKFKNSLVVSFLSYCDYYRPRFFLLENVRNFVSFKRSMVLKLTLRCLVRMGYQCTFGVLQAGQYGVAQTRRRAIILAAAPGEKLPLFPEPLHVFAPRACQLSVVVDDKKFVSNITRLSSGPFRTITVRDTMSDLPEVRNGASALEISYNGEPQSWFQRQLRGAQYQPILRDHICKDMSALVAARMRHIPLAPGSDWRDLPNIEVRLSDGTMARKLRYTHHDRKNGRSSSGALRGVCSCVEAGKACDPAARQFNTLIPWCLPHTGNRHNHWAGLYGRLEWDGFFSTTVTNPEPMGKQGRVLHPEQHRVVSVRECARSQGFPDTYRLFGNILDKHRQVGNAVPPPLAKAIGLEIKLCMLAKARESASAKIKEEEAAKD

- IC50: 3 mM
SMILES: Nc1ncnc2c1ncn2[C@@H]1O[C@H](CO)[C@@H](O)[C@H]1O [adenosine]
